Reference: US10172355B2, “Safened herbicidal compositions including 4-amino-3-chloro-5-fluoro-6-(4-chloro-2-fluoro-3-methoxyphenyl)pyridine-2-carboxylic acid or a derivative thereof for use in rice” (Dow AgroSciences LLC, priority 2012, dated 2019)
Where two headings read alike, the source gives them in different places.

Legend:
ORYSA=Orysa sativa, Rice = assay: Postemergence foliar-applied herbicides and safeners in direct-seeded rice, visual injury; assay type: in vivo; settings: foliar; for Visual Injury (%) - 21 DAA ORYSA-‘Clearfield 171’ Obs / Visual Injury (%) - 21 DAA ORYSA-‘Neptune’ Obs / Visual Injury (%) - 21 DAA ORYSA-‘Wells’ Obs: Tables 1,2,7,8; for Visual crop injury (%) at 140 g/ha / Visual crop injury (%) at 280 g/ha: Oryza sativa, 480 h, read-out: Visual Injury (%) - 20 DAA ORYSA-‘Clearfield 171’ Obs
From the text: (§1) Seeds or nutlets of the desired test plant species were planted in a soil matrix prepared by mixing a loam or sandy loam soil (e.g., 28.6 percent silt, 18.8 percent clay, and 52.6 percent sand, with a pH of about 5.8 and an organic matter content of about 1.8 percent) and calcareous grit in an 80 to 20 ratio. The soil matrix was contained in plastic pots with a surface area of 84.6 square centimeters (cm^2). When required to ensure good germination and healthy plants, a fungicide treatment and/or other chemical or physical treatment was applied. The plants were grown for 8-22 days in a greenhouse with an approximate 14 hr photoperiod which was maintained at about 29° C. during the day and 26° C. during the night. Nutrients (Peters Excel 15-5-15 5-Ca 2-Mg and iron chelate) were applied in the irrigation solution as needed and water was added on a regular basis. Supplemental lighting was provided with overhead metal halide 1000-Watt lamps as necessary. The plants were employed for testing when they reached the second or third true leaf stage.
(§2) Treatments consisted of the acid or esters of 4-amino-3-chloro-5-fluoro-6-(4-chloro-2-fluoro-3-methoxy-phenyl)pyridine-2-carboxylic acid (compound A) and various safener components alone and in combination. Forms of compound A were applied on an acid equivalent basis. Safener components were applied on an active ingredient or acid equivalent basis depending on the compound.
(§3) Treatment requirements were calculated based upon the rates being tested, the concentration of active ingredient or acid equivalent in the formulation, and a 12 mL application volume at a rate of 187 L/ha.
(§4) For treatments comprised of formulated compounds, measured amounts of compounds were placed individually in 25 mL glass vials and diluted in a volume of 1.25% (v/v) Agri-dex crop oil concentrated to obtain 12× stock solutions. […] Application solutions were prepared by adding an appropriate amount of each stock solution (e.g., 1 mL) and diluted to the appropriate final concentrations with the addition of 10 mL of an aqueous mixture of 1.25% (v/v) Agri-dex crop oil concentrate so that the final spray solutions contained 1.25% (v/v) Agri-dex crop oil concentrate.
(§5) For treatments comprised of technical compounds, weighed amounts were placed individually in 25 mL glass vials and dissolved in a volume of 97:3 v/v acetone/DMSO to obtain 12× stock solutions. […] Application solutions were prepared by adding an appropriate amount of each stock solution (e.g., 1 mL) and diluted to the appropriate final concentrations with the addition of 10 mL of an aqueous mixture of 1.5% (v/v) Agri-dex crop oil concentrate so that the final spray solutions contained 1.25% (v/v) Agri-dex crop oil concentrate. When technical materials were used, the concentrated stock solutions were added to the spray solutions so that the final acetone and DMSO concentrations of the application solutions were […], respectively.
(§6) For treatments comprised of formulated and technical compounds, weighed amounts of the technical materials were placed individually in 25 mL glass vials and dissolved in a volume of 97:3 v/v acetone/DMSO to obtain 12× stock solutions, and measured amounts of the formulated compounds were placed individually in 25 mL glass vials and diluted in a volume of 1.5% (v/v) Agri-dex crop oil concentrate or water to obtain 12× stock solutions. […] Application solutions were prepared by adding an appropriate amount of each stock solution (e.g., 1 mL) and diluted to the appropriate final concentrations with the addition of an appropriate amount of an aqueous mixture of 1.5% (v/v) Agri-dex crop oil concentrate so that the final spray solutions contained 1.25% (v/v) Agri-dex crop oil concentrate. When required, additional water and/or 97:3 v/v acetone/DMSO was added to individual application solutions so that the final acetone and DMSO concentrations of the application solutions being compared were 8.1% and 0.25%, respectively. […]

[1] = test system: ECHCG=Echinochloa crus-galli; assay: Postemergence foliar-applied herbicides and safeners, visual injury of weed; assay type: in vivo; settings: foliar; for pest or weed control at 280 g/ha / pest or weed control at 140 g/ha: Echinochloa crus-galli, 480 h, read-out: Visual Injury (%) - 20 DAA ECHCG Obs
From the text: as §1, §2, §3, §4, §5, §6

[2] = safener 280 g ai/ha alone, trial of Tables 3,4,6,10,12,14
[3] = safener 140 g ai/ha alone, trial of Tables 3,4,6,10,12,14
[4] = safener 280 g ai/ha alone, trial of Tables 5,9,11,13
[5] = safener 140 g ai/ha alone, trial of Tables 5,9,11,13

SMILES: CCCCCC(C)OC(=O)COc1ccc(Cl)c2cccnc12 (centres unmarked) [Cloquintocet-mexyl]
- Visual Injury (%) - 21 DAA ORYSA-‘Clearfield 171’ Obs (ORYSA=Orysa sativa, Rice; safener 70 g ai/ha alone): 0%
- Visual Injury (%) - 21 DAA ORYSA-‘Neptune’ Obs (ORYSA=Orysa sativa, Rice; safener 70 g ai/ha alone): 0%
- Visual Injury (%) - 21 DAA ORYSA-‘Wells’ Obs (ORYSA=Orysa sativa, Rice; safener 70 g ai/ha alone): 0%
- Visual Injury (%) - 21 DAA ORYSA-‘Clearfield 171’ Obs (ORYSA=Orysa sativa, Rice; safener 140 g ai/ha alone): 0%
- Visual Injury (%) - 21 DAA ORYSA-‘Neptune’ Obs (ORYSA=Orysa sativa, Rice; safener 140 g ai/ha alone): 0%
- Visual Injury (%) - 21 DAA ORYSA-‘Wells’ Obs (ORYSA=Orysa sativa, Rice; safener 140 g ai/ha alone): 0%
- Visual Injury (%) - 21 DAA ORYSA-‘Neptune’ Obs (ORYSA=Orysa sativa, Rice; safener 280 g ai/ha alone): 0%
- Visual Injury (%) - 21 DAA ORYSA-‘Wells’ Obs (ORYSA=Orysa sativa, Rice; safener 280 g ai/ha alone): 0%

SMILES: Cc1ccc(NC(=O)NC(C)(C)c2ccccc2)cc1 [Daimuron, N-(4-methylphenyl)-N′-(1-methyl-1-phenylethyl)-urea]
- Visual Injury (%) - 21 DAA ORYSA-‘Clearfield 171’ Obs (ORYSA=Orysa sativa, Rice; safener 70 g ai/ha alone): 0%
- Visual Injury (%) - 21 DAA ORYSA-‘Neptune’ Obs (ORYSA=Orysa sativa, Rice; safener 70 g ai/ha alone): 0%
- Visual Injury (%) - 21 DAA ORYSA-‘Wells’ Obs (ORYSA=Orysa sativa, Rice; safener 70 g ai/ha alone): 0%
- Visual Injury (%) - 21 DAA ORYSA-‘Clearfield 171’ Obs (ORYSA=Orysa sativa, Rice; safener 140 g ai/ha alone): 0%
- Visual Injury (%) - 21 DAA ORYSA-‘Neptune’ Obs (ORYSA=Orysa sativa, Rice; safener 140 g ai/ha alone): 0%
- Visual Injury (%) - 21 DAA ORYSA-‘Wells’ Obs (ORYSA=Orysa sativa, Rice; safener 140 g ai/ha alone): 0%
- Visual Injury (%) - 21 DAA ORYSA-‘Neptune’ Obs (ORYSA=Orysa sativa, Rice; safener 280 g ai/ha alone): 0%
- Visual Injury (%) - 21 DAA ORYSA-‘Wells’ Obs (ORYSA=Orysa sativa, Rice; safener 280 g ai/ha alone): 0%

SMILES: C=CCN(CC=C)C(=O)C(Cl)Cl [Dichlormid, N,N-diallyl-2,2-dichloroacetamide]
- pest or weed control at 280 g/ha [1, 2]: 0%
- Visual crop injury (%) at 140 g/ha (ORYSA=Orysa sativa, Rice; [3]): 0%
- Visual crop injury (%) at 280 g/ha (ORYSA=Orysa sativa, Rice; [2]): 0%

SMILES: CC1(C)CN2C(=O)CCC2(C)N(C(=O)C(Cl)Cl)C1 (centres unmarked) [Dicyclonon]
- Visual Injury (%) - 20 DAA ECHCG Obs [1, 2]: 0%
- Visual Injury (%) - 20 DAA ECHCG Obs [1, 4]: 3%
- Visual Injury (%) - 20 DAA ORYSA-‘Clearfield 171’ Obs (ORYSA=Orysa sativa, Rice; [3]): 0%
- Visual Injury (%) - 20 DAA ORYSA-‘Clearfield 171’ Obs (ORYSA=Orysa sativa, Rice; [5]): 0%
- Visual Injury (%) - 20 DAA ORYSA-‘Clearfield 171’ Obs (ORYSA=Orysa sativa, Rice; [2]): 3%
- Visual Injury (%) - 20 DAA ORYSA-‘Clearfield 171’ Obs (ORYSA=Orysa sativa, Rice; [4]): 0%

SMILES: CC(C)(SC(=O)N1CCCCC1)c1ccccc1 [Dimepiperate, S-(1-methyl-1-phenylethyl)1-piperidine-carbothioate, reference compound]
- pest or weed control at 140 g/ha [1, 3]: 0%
- pest or weed control at 280 g/ha [1, 2]: 0%
- Visual crop injury (%) at 140 g/ha (ORYSA=Orysa sativa, Rice; [3]): 7%
- Visual crop injury (%) at 280 g/ha (ORYSA=Orysa sativa, Rice; [2]): 3%

SMILES: Clc1cc(Cl)nc(-c2ccccc2)n1 [Fenclorim, 4,6-dichloro-2-phenylpyrimidine, reference compound]
- pest or weed control at 140 g/ha [1, 5]: 0%
- pest or weed control at 280 g/ha [1, 4]: 0%
- Visual Injury (%) - 20 DAA ECHCG Obs [1, 3]: 0%
- Visual Injury (%) - 20 DAA ECHCG Obs [1, 2]: 0%
- Visual crop injury (%) at 140 g/ha (ORYSA=Orysa sativa, Rice; [3]): 0%
- Visual crop injury (%) at 140 g/ha (ORYSA=Orysa sativa, Rice; [5]): 0%
- Visual crop injury (%) at 280 g/ha (ORYSA=Orysa sativa, Rice; [2]): 0%
- Visual crop injury (%) at 280 g/ha (ORYSA=Orysa sativa, Rice; [4]): 0%

SMILES: CC1(C)OC(c2ccco2)CN1C(=O)C(Cl)Cl (centres unmarked) [Furilazole, 3-(dichloroacetyl)-5-(2-furanyl)-2,2-dimethyl-oxazolidine, reference compound]
- pest or weed control at 140 g/ha [1, 5]: 0%
- pest or weed control at 280 g/ha [1, 4]: 0%
- Visual Injury (%) - 20 DAA ECHCG Obs [1, 3]: 0%
- Visual Injury (%) - 20 DAA ECHCG Obs [1, 2]: 0%
- Visual crop injury (%) at 140 g/ha (ORYSA=Orysa sativa, Rice; [3]): 7%
- Visual crop injury (%) at 140 g/ha (ORYSA=Orysa sativa, Rice; [5]): 0%
- Visual crop injury (%) at 280 g/ha (ORYSA=Orysa sativa, Rice; [2]): 18%
- Visual crop injury (%) at 280 g/ha (ORYSA=Orysa sativa, Rice; [4]): 0%

SMILES: O=C1OC(=O)c2cccc3cccc1c23 [Naphthalic anhydride, 1H,3H-naphtho[1,8-cd]pyran-1,3-dione, reference compound]
- pest or weed control at 140 g/ha [1, 5]: 0%
- pest or weed control at 280 g/ha [1, 4]: 0%
- Visual Injury (%) - 20 DAA ECHCG Obs [1, 3]: 0%
- Visual Injury (%) - 20 DAA ECHCG Obs [1, 2]: 0%
- Visual crop injury (%) at 140 g/ha (ORYSA=Orysa sativa, Rice; [3]): 0%
- Visual crop injury (%) at 140 g/ha (ORYSA=Orysa sativa, Rice; [5]): 0%
- Visual crop injury (%) at 280 g/ha (ORYSA=Orysa sativa, Rice; [2]): 0%
- Visual crop injury (%) at 280 g/ha (ORYSA=Orysa sativa, Rice; [4]): 3%
